Where a chain is given by its changes, count along the chain named.

For 2 compounds, Kd results are on record in paper doi:10.1101/2024.06.04.597308v2 (biorxiv, 2024).

What all share (test): isothermal titration calorimetry
Common to all, as to type: binding
On the technique in general: Isothermal titration calorimetry measures the heat released or taken up as one component is titrated into another.

The target of assay [1] is T1, 3β-OH-Δ^5-6-cholesterol-5β-reductase (5βChR); putative cholesterol dehydrogenase (Limosilactobacillus fermentum, UniProt A0ABF7R4H0, F190A).
T1 sequence (A0ABF7R4H0 1-249 F190A): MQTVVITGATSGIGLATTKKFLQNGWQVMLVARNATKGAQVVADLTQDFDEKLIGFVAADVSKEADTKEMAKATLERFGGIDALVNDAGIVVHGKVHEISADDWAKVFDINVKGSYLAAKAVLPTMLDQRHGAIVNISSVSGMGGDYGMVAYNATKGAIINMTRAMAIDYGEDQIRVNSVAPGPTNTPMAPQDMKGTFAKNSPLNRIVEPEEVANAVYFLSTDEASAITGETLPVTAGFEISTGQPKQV
To be noted: NADP+ titration; C-terminal substrate-pocket mutant.

Assay [2] has as its target T2, 3β-OH-Δ^5-6-cholesterol-5β-reductase (5βChR); putative cholesterol dehydrogenase (Limosilactobacillus fermentum, UniProt A0ABF7R4H0, T187A).
T2 sequence (A0ABF7R4H0 1-249 T187A): T1 sequence (A0ABF7R4H0 1-249 F190A) with T187A, A190F
The conditions noted are these: NADP+ titration; C-terminal substrate-pocket mutant.

In assay [3] the target is T3, 3β-OH-Δ^5-6-cholesterol-5β-reductase (5βChR); putative cholesterol dehydrogenase (Limosilactobacillus fermentum, UniProt A0ABF7R4H0, M189A).
T3 sequence (A0ABF7R4H0 1-249 M189A): T1 sequence (A0ABF7R4H0 1-249 F190A) with M189A, A190F
To be noted: NADP+ titration; C-terminal substrate-pocket mutant.

For assay [4], the target named is T4, 3β-OH-Δ^5-6-cholesterol-5β-reductase (5βChR); putative cholesterol dehydrogenase (Limosilactobacillus fermentum, UniProt A0ABF7R4H0, S139A).
T4 sequence (A0ABF7R4H0 1-249 S139A): T1 sequence (A0ABF7R4H0 1-249 F190A) with S139A, A190F
To be noted: catalytic tetrad mutant.

The target of assay [5] is T5, 3β-OH-Δ^5-6-cholesterol-5β-reductase (5βChR); putative cholesterol dehydrogenase (Limosilactobacillus fermentum, UniProt A0ABF7R4H0, Y152A).
T5 sequence (A0ABF7R4H0 1-249 Y152A): T1 sequence (A0ABF7R4H0 1-249 F190A) with Y152A, A190F
To be noted: catalytic tetrad mutant.

Take `NC(=O)c1ccc[n+]([C@@H]2O[C@H](COP(=O)(O)OP(=O)(O)OC[C@H]3O[C@@H](n4cnc5c(N)ncnc54)[C@H](OP(=O)(O)O)[C@@H]3O)[C@@H](O)[C@H]2O)c1` [NADP^+]: the values for the Kd in assay [1], in assay [2] and in assay [3] were 5.2 µM, 8.77 µM and 7.49 µM, respectively.

As to `CC(C)CCC[C@@H](C)[C@H]1CC[C@H]2[C@@H]3CC=C4C[C@@H](O)CC[C@]4(C)[C@H]3CC[C@]12C` [cholesterol], the Kd in assay [4] worked out at 24.8 µM; in assay [5], 4.44 µM.

For orientation: Kd means the free concentration of one partner at which half of the binding sites on the other are occupied at equilibrium, for simple one-to-one binding.
